Source: patent US5476841A, “Inhibitors of herpes viral ribonucleotide reductase” (Bio-Mega/Boehringer Ingelheim Research Inc., priority 1994, dated 1995)
Where a SMILES comes first, the peptide text is derived from it. [ ]: non-standard residue; d: D form. The star is where a group is joined. Asp(3,3-(CH2)4) = N[C@H](C(=O)O)C1(C(=O)O)CCCC1; Dibenzylacetyl = O=C(C(Cc1ccccc1)Cc1ccccc1)*; Leu(γ-Me)ol = CC(C)(C)C[C@@H](CO)N*; tBuAla = CC(C)(C)C[C@H](N)C(=O)O; Tle = CC(C)(C)[C@H](N)C(=O)O; NMeV = CN[C@H](C(=O)O)C(C)C; X1 = CC[C@@H](N*)C(C)(C)C; Pyrrolidide = C1CCN(*)C1; NHCH2tBu = CC(C)(C)CN*

Experiments:
HSV-2 = experiment: Inhibition of Herpes Simplex virus (HSV-2) replication in cell culture; format: cell-based; conditions: BHK-21/C13 cells, serum starved, HSV-2 strain HG-52, 0.02 PFU/cell, 29 h incubation; read-out: EC50, concentration effecting a 50% inhibition of HSV-2 virus replication
Protocol: Inhibition of Herpes Simplex virus (HSV-2) Replication in Cell Culture
BHK-21/C13 cells (ATCC CCL 10) are incubated for two days in 150 cm^2 T-flasks (1.5×10^6 cells/flask) with alpha-MEM medium (Gibco Canada Inc., Burlington, Ontario, Canada) supplemented with 8% (v/v) fetal bovine serum (FBS, Gibco Canada Inc.). The cells are trypsinized and then transferred to fresh media in a 24 well plate to give 2.5×10^5 cells in 750 μL of media per well. The cells are incubated at 37° for a period of 6 h to allow them to adhere to the plate. Thereafter, the cells are washed once with 500 μL of alpha-MEM supplemented with 0.5% (v/v) FBS and then incubated with 750 μL of the same media (low serum) for 3 days. After this period of serum starvation, the low serum medium is removed and the cells are incubated in 500 μL of BBMT for 2 to 3 hours. {BBMT medium is described by P. Brazeau et al., Proc. Natl. Acad. Sci. USA, 79, 7909 (1982).} Thereafter, the cells are infected with HSV-2 (multiplicity of infection=0.02 PFU/cell) in 100 μL of BBMT medium. (Note: The HSV-2 used was strain HG-52, see Y. Langelier and G. Buttin, J. Gen. Virol., 57, 21 (1981); the virus was stored at -80°.) Following 1 h of virus adsorption at 37°, the media is removed and the cells are washed with BBMT (3×250 μL). The cells in each well are incubated with or without (control) appropriate concentrations of the test agent dissolved in 200 μL of BBMT medium. After 29 h of incubation at 37°, the infected cells are harvested by first freezing the plate at -80°, followed by thawing. The cells in each well are scraped off the surface of the well with the help of the melting ice fragments. After complete thawing, the cell suspensions are collected and each well is rinsed with 150 μL of BBMT medium. The viral sample (suspension plus washing) is sonicated gently for 4 min at 4°. Cell debris are removed by centrifugation (1000 times gravity for 10 minutes at 4°). The supernatant is collected and stored at -80° until determination of viral titer.
Viral titration was performed by a modification of the colorimetric assay method of M. Langlois et al., Journal of Biological Standardization, 14, 201 (1986), and which is described in detail by R. Deziel and Y. Guindon, supra.
Accordingly, the percentage of virus growth inhibition can be determined for the various concentrations of the test agent, and the concentration of the test agent (i.e. the peptide of formula 1) effecting a 50% inhibition of virus replication, i.e. the EC50, can be calculated.

[1] = target: T1, HSV-1 ribonucleotide reductase (Human herpesvirus 1, UniProt P08543); experiment: Inhibition of Herpes Simplex virus (HSV-1) ribonucleotide reductase; format: biochemical; conditions: partially purified enzyme from HSV-1 strain F infected BHK-21/C13 cells; mean of four assays; read-out: IC50, concentration causing a 50% reduction of the HSV-1 ribonucleotide reductase activity
T1 construct: obtained from quiescent BHK-21/C13 cells infected with strain F HSV-1 virus; made in house; host or cells: quiescent BHK-21/C13 cells infected with HSV-1 strain F (virus-encoded enzyme, partially purified)
T1 sequence (P08543 whole entry): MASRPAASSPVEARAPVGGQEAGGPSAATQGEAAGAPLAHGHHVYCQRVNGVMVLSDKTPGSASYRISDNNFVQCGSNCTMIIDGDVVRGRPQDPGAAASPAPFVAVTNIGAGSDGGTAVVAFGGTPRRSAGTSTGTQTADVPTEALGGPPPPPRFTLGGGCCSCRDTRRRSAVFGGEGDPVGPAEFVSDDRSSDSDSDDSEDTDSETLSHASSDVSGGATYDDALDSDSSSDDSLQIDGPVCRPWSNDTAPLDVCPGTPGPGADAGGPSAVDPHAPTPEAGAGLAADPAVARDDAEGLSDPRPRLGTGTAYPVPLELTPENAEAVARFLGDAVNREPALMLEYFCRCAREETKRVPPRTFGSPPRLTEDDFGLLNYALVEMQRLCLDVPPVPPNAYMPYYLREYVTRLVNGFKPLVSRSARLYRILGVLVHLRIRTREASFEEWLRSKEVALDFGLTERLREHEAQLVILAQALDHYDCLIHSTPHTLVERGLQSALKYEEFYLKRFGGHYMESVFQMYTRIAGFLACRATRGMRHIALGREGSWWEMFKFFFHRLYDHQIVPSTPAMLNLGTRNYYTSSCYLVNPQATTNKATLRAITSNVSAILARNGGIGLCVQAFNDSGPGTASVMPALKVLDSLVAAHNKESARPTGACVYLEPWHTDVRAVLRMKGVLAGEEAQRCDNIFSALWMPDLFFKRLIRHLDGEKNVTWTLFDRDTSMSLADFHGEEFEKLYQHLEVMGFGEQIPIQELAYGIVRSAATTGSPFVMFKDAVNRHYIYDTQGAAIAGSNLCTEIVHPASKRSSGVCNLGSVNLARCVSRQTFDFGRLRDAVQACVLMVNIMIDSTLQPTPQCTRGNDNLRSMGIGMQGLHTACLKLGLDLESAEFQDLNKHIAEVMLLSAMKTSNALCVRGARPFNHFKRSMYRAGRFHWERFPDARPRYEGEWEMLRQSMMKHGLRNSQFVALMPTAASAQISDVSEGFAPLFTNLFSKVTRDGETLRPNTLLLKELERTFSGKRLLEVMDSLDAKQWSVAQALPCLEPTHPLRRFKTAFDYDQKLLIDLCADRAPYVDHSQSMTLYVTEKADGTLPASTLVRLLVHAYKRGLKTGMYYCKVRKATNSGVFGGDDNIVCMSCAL
Text: Inhibition of Herpes Simplex virus (HSV-1) Ribonucleotide Reductase
HSV-1 ribonucleotide reductase (partially purified) was obtained from quiescent BHK-21/C13 cells infected with strain F HSV-1 virus at 10 plaque forming units/cell as described by E. A. Cohen et al., J. Gen. Virol., 66, 733 (1985).
The assay described by P. Gaudreau et al., J. Biol. Chem., 262, 12413 (1987), is used to evaluate the capability of the compounds of this invention to inhibit HSV-1 ribonucleotide reductase activity. Results are expresed as the concentration of the compound producing 50% of the maximal inhibition (IC50) of enzyme activity. The number of units of the enzyme preparation used in each assay was constant, based on the specific activity of the enzyme preparation. The results are relative to the activity obtained in control experiments without the test compound and represent the mean of four assays that varied less than 10% with each other.

SMILES | EC50 (HSV-2) | IC50 [1]
CC[C@@H](NC(=O)[C@@H](NC(=O)[C@H](CC(=O)N1CCCC1)NC(=O)[C@@H](NC(=O)[C@H](C(C)C)N(C)C(=O)C(Cc1ccccc1)Cc1ccccc1)C(C)(C)C)C1(C(=O)O)CCCC1)C(C)(C)C [(PhCH2)2 CHC (O)--(N-Me)-Val-Tbg-Asp(pyrrolidino)-Asp(cyPn)-NH--(R)--CH(C2 H5)C(CH3)3] (Dibenzylacetyl-[NMeV][Tle]D(Pyrrolidide)[Asp(3,3-(CH2)4)]-X1) | < 2 µM | –
CC(C)[C@@H](C(=O)N[C@H](C(=O)N[C@@H](CC(=O)N1CCCC1)C(=O)N[C@H](C(=O)N[C@@H](CC(C)(C)C)C(=O)O)C1(C(=O)O)CCCC1)C(C)(C)C)N(C)C(=O)C(Cc1ccccc1)Cc1ccccc1 [(PhCH2)2 CHC(O)--(N-Me)-Val-Tbg-Asp (pyrrolidino)-Asp(cyPn)-γMeLeu-OH] (Dibenzylacetyl-[NMeV][Tle]D(Pyrrolidide)[Asp(3,3-(CH2)4)][tBuAla]-OH) | 6 µM | –
CC(C)[C@@H](C(=O)N[C@H](C(=O)N[C@@H](CC(=O)N1CCCC1)C(=O)N[C@H](C(=O)NCC(C)(C)C)C1(C(=O)O)CCCC1)C(C)(C)C)N(C)C(=O)C(Cc1ccccc1)Cc1ccccc1 [(PhCH2)2 CHC(O)--(N-Me)-Val-Tbg-Asp(pyrrolidino)-Asp(cyPn)-NHCH2 C(CH3)3] (Dibenzylacetyl-[NMeV][Tle]D(Pyrrolidide)[Asp(3,3-(CH2)4)]-NHCH2tBu) | 1.6 µM | –
CC(C)[C@@H](C(=O)N[C@H](C(=O)N[C@@H](CC(=O)N1CCCC1)C(=O)N[C@H](C(=O)N[C@H](CO)CC(C)(C)C)C1(C(=O)O)CCCC1)C(C)(C)C)N(C)C(=O)C(Cc1ccccc1)Cc1ccccc1 [Example 3, (PhCH2)2 CHC(O)--(N-Me)-Val-Tbg-Asp(pyrrolidino)-Asp(cyPn)-γMeLeucinol] (Dibenzylacetyl-[NMeV][Tle]D(Pyrrolidide)[Asp(3,3-(CH2)4)]-{Leu(γ-Me)ol}) | 3 µM | 0.17 µM
